Assay results taken from patent EP1434624B1, “2-AMINO-6-(2,4,5-SUBSTITUTED-PHENYL)-PYRIDINES FOR USE AS NITRIC OXIDE SYNTHASE INHIBITORS” (Pfizer Products Inc., priority 2001, dated 2003).
Where two headings read alike, the source gives them in different places.

Molecular target: neuronal NOS (Homo sapiens, UniProt P29475)
Assay: Inhibition of NO synthase activity by conversion of [3H]arginine to [3H]citrulline (crude enzyme lysate)
Type: biochemical
Procedure: The ability of the compounds of the present invention to inhibit neuronal NOS may be determined using the procedure described by Bredt and Snyder in Proc. Natl. Acad. Sci. U.S.A., 87, 682-685 (1990).
As indicated above, inhibition of NO synthase activity may be determined by conversion of [^3H]arginine to [^3H]citrulline as described by Bredt and Snyder in Proc. Natl. Acad. Sci. U.S.A., 87, 682-685 (1990), but with slight modification. Specifically, 10 uL of crude enzyme lysate and 10 uL of 350 nM [^3H]arginine are added to 100 uL of buffer containing 10 mM Hepes, 0.32 M sucrose, 0.75 mM NADPH, 0.1 mM EDTA, 0.63 mM CaCl2, 1 mM dithiothreitol, 30 nM calmodulin(CaM), 2 uM Flavin Adenin dinucleotie (FAD), 2 uM Flavin mononucleotide (FMN), 3 uM tetrahydrobiopterin (H4B) and trace bovine serum albumin in 96-well plate format. After incubation for 50 minutes at 30°C, assays are terminated by application to 75 uL BioRex-70 resin (H^+ form) and eluted with 90 uL of water. [^3H]citrulline may be quantified by liquid scintillation spectroscopy of the total flow-through.

neuronal NOS, sequence (P29475 whole entry): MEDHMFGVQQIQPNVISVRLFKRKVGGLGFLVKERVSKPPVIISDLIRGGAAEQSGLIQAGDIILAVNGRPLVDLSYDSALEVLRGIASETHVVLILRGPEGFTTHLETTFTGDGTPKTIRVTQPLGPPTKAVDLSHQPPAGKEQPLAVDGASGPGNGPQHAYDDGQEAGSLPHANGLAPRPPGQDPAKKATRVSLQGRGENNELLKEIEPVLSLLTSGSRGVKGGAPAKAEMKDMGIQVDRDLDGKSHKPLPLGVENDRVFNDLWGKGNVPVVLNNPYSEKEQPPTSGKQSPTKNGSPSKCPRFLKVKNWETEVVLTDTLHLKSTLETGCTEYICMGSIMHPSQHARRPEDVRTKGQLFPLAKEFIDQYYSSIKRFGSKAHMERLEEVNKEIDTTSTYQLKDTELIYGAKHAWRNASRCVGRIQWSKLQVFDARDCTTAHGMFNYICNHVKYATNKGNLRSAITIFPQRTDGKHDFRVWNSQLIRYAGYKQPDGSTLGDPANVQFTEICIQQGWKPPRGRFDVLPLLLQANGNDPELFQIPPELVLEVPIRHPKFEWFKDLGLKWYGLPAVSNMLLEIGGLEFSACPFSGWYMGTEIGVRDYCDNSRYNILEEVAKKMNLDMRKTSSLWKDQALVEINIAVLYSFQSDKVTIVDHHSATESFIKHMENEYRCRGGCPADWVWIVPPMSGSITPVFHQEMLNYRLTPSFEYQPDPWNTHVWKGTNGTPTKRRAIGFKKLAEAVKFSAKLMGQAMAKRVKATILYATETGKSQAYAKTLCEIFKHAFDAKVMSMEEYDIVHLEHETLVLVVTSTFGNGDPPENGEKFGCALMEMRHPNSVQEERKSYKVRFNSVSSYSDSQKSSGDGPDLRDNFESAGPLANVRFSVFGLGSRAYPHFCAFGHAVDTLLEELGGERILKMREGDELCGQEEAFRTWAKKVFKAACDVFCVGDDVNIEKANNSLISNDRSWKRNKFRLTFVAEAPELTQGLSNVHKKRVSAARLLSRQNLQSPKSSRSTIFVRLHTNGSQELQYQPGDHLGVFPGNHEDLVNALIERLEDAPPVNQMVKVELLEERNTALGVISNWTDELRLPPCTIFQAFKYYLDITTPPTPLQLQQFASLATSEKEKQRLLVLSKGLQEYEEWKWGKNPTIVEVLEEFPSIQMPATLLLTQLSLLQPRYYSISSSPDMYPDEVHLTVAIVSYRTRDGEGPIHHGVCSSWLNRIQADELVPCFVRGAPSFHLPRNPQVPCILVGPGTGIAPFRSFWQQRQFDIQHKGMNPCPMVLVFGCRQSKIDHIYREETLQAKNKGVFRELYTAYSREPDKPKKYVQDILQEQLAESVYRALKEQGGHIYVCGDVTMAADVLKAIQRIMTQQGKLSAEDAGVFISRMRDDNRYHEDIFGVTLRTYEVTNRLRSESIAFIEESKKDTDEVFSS

| IC50 [nM] | IC50 (crude enzyme lysate, [3H]arginine to [3H]citrulline, 50 minutes at 30°C, read-out: IC50 for inhibition of neuronal NOS) [nM] | SMILES |
| --- | --- | --- |
| 30 |  | CCc1cc(-c2cccc(N)n2)c(OC)cc1CNC [Example 3, 6-[4-(N-methylaminomethyl)-5-ethyl-2-methoxy-phenyl]-pyridin-2-ylamine] |
|  | 36 | CCc1cc(-c2cccc(N)n2)c(OC)cc1OC1CNC1 [Example 1, 6-[4-(3-azetidinoxy)-5-ethyl-2-methoxy-phenyl]-pyridin-2-ylamine] |
